Target: Recombinant human liver glucokinase (FLAG fusion protein) (Homo sapiens (Human), UniProt P35557)
Assay: glucokinase (GK) activation assay, Thio-NADH formation coupled to G6PDH, absorbance at 405 nm
Format: biochemical
Details: 2.5 mM Glu; for EC50: 30° C.; for Emax: OD value of DMSO control regarded as 100%, read-out: Emax
Source text: The glucokinase activity can, for instance, be determined without directly measuring glucose-6-phosphate by measuring the amount of Thio-NADH generated during the production of phosphogluconolactone from glucose-6-phosphate by a reporter enzyme glucose-6-phosphate dehydrogenase.
To test the exemplified compounds, the following assay was employed. Recombinant human liver glucokinase was expressed as a FLAG fusion protein in E. coli, and purified on ANTIFLAG M2 AFFINITY GEL (Sigma). The assay was carried out at 30° C. in a 96-well plate. In the plate was distributed 69 μl each of assay buffer (25 mM Hepes Buffer: pH=7.2, 2 mM MgCl2, 1 mM ATP, 0.5 mM TNAD, 1 mM dithiothreitol), to which was added 1 μl of a DMSO solution of the compound or DMSO as control. Then, 20 μl of pre-ice-cooled enzyme mixture (FLAG-GK, 20 U/ml G6PDH) was distributed thereto, to which was added 10 μl of 25 mM glucose as substrate to initiate the reaction (final glucose concentration=2.5 mM). After starting the reaction, the absorbance at 405 nm was measured every 30 seconds for 10 minutes to evaluate the compound based on the initial increase for 5 minutes. FLAG-GK was added so that the increase of absorbance after 5 minutes fell between 0.05 to 0.1 in the presence of 1% DMSO.
The OD values of the respective compounds were measured in the respective concentrations, wherein the OD value of DMSO as control is regarded as 100%. From the OD values at the respective concentrations, Emax (%, 2.5 mM Glu) and EC50 (nM, 2.5 mM Glu) were calculated and used as indicators of the GK activation capability of the compounds. According to the above assay, the GK activation capability of the exemplified compounds of the present invention was determined. […] Where different enantiomers of the same compound were tested, two numbers are provided. Where 3 numbers are provided, for example, Ex. #30, data for the racemic form is also shown.

Recombinant human liver glucokinase (FLAG fusion protein), sequence (P35557 other isoform, or with tags, fused parts or gaps): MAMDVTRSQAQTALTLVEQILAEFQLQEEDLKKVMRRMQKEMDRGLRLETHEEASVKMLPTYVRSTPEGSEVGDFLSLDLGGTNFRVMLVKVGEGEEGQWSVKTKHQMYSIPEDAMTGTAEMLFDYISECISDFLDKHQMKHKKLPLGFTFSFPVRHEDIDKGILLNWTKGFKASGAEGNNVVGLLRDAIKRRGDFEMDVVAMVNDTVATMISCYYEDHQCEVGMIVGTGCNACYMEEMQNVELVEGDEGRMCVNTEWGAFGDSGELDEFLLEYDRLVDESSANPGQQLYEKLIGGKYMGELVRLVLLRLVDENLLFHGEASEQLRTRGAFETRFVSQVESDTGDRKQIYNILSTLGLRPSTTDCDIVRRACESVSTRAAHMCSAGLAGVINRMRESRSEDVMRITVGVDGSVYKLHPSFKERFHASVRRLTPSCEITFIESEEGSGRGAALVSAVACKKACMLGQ

Compound | EC50 [nM] | Emax [%]
CN1C(=O)CCC1c1cc2[nH]c(-c3ncc(CCC(=O)O)s3)cc2cc1Oc1ccc(S(C)(=O)=O)cc1 (stereo not shown) [Example 36, 3-(2-(6-(1-methyl-5-oxopyrrolidin-2-yl)-5-(4-(methylsulfonyl)phenoxy)-1H-indol-2-yl)thiazol-5-yl)propanoic acid] | 66.7 | 619
CN1C(=O)CCC1c1cc2[nH]c(-c3ccc(CC(C)(C)C(=O)O)cn3)cc2cc1Oc1ccc(S(C)(=O)=O)nc1 (stereo not shown) [Example 17, 2,2-dimethyl-3-(6-(6-(1-methyl-5-oxopyrrolidin-2-yl)-5-((6-(methylsulfonyl)pyridin-3-yl)oxy)-1H-indol-2-yl)pyridin-3-yl)propanoic acid] | 108 | 643
COC(=O)CCc1ccc(Oc2cc3cc(-c4ccccn4)[nH]c3cc2C2CCC(=O)N2C)cc1 (stereo not shown) [Example 26, methyl 3-(4-((6-(1-methyl-5-oxopyrrolidin-2-yl)-2-(pyridin-2-yl)-1H-indol-5-yl)oxy)phenyl)propanoate] | 4.3 | 545
CN1C(=O)CCC1c1cc2[nH]c(-c3ccccc3)cc2cc1Oc1ccc(CCC(=O)O)cc1 (stereo not shown) [Example 22, 3-(4-((6-(1-methyl-5-oxopyrrolidin-2-yl)-2-phenyl-1H-indol-5-yl)oxy)phenyl)propanoic acid] | 456 | 410
CCS(=O)(=O)c1ccc(Oc2cc3cc(-c4ccc(CCC(=O)O)cn4)[nH]c3cc2C2CCC(=O)N2C)cc1 (stereo not shown) [Example 2, 3-(6-{5-[4-(ETHYLSULFONYL)PHENOXY]-6-(1-METHYL-5-OXOPYRROLIDIN-2-YL)-1H-INDOL-2-YL}PYRIDIN-3-YL)PROPANOIC ACID] | 53.4 | 652
CN1C(=O)CCC1c1cc2[nH]c(-c3nc(CC(=O)O)c(Cl)s3)cc2cc1Oc1ccc(S(C)(=O)=O)cc1 (stereo not shown) [Example 33, 2-(5-chloro-2-(6-(1-methyl-5-oxopyrrolidin-2-yl)-5-(4-(methylsulfonyl)phenoxy)-1H-indol-2-yl)thiazol-4-yl)acetic acid] | 47.4 | 586
CN1C(=O)CCC1c1cc2[nH]c(-c3nc(CC(=O)O)c(Cl)s3)cc2cc1Oc1ccc(S(C)(=O)=O)nc1 (stereo not shown) [Example 30, 2-(5-chloro-2-(6-(1-methyl-5-oxopyrrolidin-2-yl)-5-((6-(methylsulfonyl)pyridin-3-yl)oxy)-1H-indol-2-yl)thiazol-4-yl)acetic acid] | 49.1 | 506
CN1C(=O)CCC1c1cc2[nH]c(-c3ccc(C(=O)NCCC(=O)O)cn3)cc2cc1Oc1ccc(S(C)(=O)=O)nc1 (stereo not drawn) [Example 8, N-({6-[6-(1-METHYL-5-OXOPYRROLIDIN-2-YL)-5-{[6-(METHYL-SULFONYL)PYRIDIN-3-YL]OXY}-1H-INDOL-2-YL]PYRIDIN-3-YL}-CARBONYL)-β-ALANINE] | 116 | 501
CN1C(=O)CCC1c1cc2[nH]c(-c3ccc(C(F)(F)F)cn3)cc2cc1Oc1ccc(CC(=O)O)cc1 (stereo not shown) [Example 20, 2-(4-((6-(1-methyl-5-oxopyrrolidin-2-yl)-2-(5-(trifluoromethyl)pyridin-2-yl)-1H-indol-5-yl)oxy)phenyl)acetic acid] | 63.9 | 521
CN1C(=O)CCC1c1cc2[nH]c(-c3nc(CC(=O)O)cs3)cc2cc1Oc1ccc(S(C)(=O)=O)cc1 (stereo not shown) [Example 34, 2-(2-(6-(1-methyl-5-oxopyrrolidin-2-yl)-5-(4-(methylsulfonyl)phenoxy)-1H-indol-2-yl)thiazol-4-yl)acetic acid] | 118 | 606
CN1C(=O)CCC1c1cc2[nH]c(-c3ccc(OCC(=O)O)cn3)cc2cc1Oc1ccc(S(C)(=O)=O)nc1 (stereo not shown) [Example 18, 2-((6-(6-(1-methyl-5-oxopyrrolidin-2-yl)-5-((6-(methylsulfonyl)pyridin-3-yl)oxy)-1H-indol-2-yl)pyridin-3-yl)oxy)acetic acid] | 81 | 612

Reference: patent publication US9453038B2, “Glucokinase activator compounds, compositions containing such compounds, and methods of treatment” (Merck Sharp & Dohme Corp., priority 2012, dated 2016)
